This passage reports MIC results from patent publication US7332476B2, “Pyridyl substituted ketolide antibiotics” (Novartis AG, priority 2003, dated 2008).

Values after ≈ are worked out from the molar mass of the structure shown.

Test in all cases: MIC, broth microdilution (NCCLS)
Background: Broth dilution looks for growth in wells or tubes with falling amounts of substance.

The subject of assay [1] is Streptococcus pneumoniae Stpn_Mef 5654. In kind it is cell-based. Conditions: Table 7, Strain ID K (Table 6): S. pneumoniae Stpn_Mef 5654; in µg/mL (unit assumed). On the procedure: (§1) Strains. The bacterial isolates listed in Table 4 were cultivated from −70° C. frozen stocks by two consecutive overnight passages (P1, P2) at 35° C. on 5% blood agar (Remel, Lenexa, Kans.). Chocolate agar (Remel) is used for Haemophilus influenzae. H. influenzae and Streptococcus pneumoniae are incubated in 5-10% CO2
(§2) Drug Stock Preparation. To determine the amount of solvent to be used to give the desired final concentration, the formula “weight obtained in mg/final concentration in mg/ml” will be used. It will give the amount of solvent in ml needed to be added to give the desired concentration. For example, if 2.5 mg/ml is the desired concentration and the weight of compound is 13.7 mg, then the amount of solvent to be added is […]. Methanol is used as the solvent to dissolve the test compounds. Further dilution of stock is done in sterile, deionized water. Drug stocks are kept frozen at −70° C., protected from light.
(§3) Susceptibility Testing. MICs are determined by the broth microdilution method in accordance with the NCCLS guidelines. In brief, organism suspensions are adjusted to a 0.5 McFarland standard to yield a final inoculum between 3×10^5 and 7×10^5 CFU/ml. Drug dilutions and inocula are made in sterile, cation adjusted Mueller-Hinton Broth (CAMHB) (Remel) for all but S. pneumoniae [CAMHB with 2-5% lysed horse blood (Remel)] and H. influenzae [Haemophilus Test Medium (Remel)]. An inoculum volume of 100 μl is added to wells containing 100 μl of broth with 2-fold serial dilutions of drug. All inoculated microdilution trays are incubated in ambient air at 35° C. for 18-24 hours, except for S. pneumoniae, and H. influenzae (both at 5-10% CO2).
(§4) Following appropriate incubation, the MIC is determined and the MIC is defined as the lowest concentration of the drug that prevented visible growth.
Strains. The bacterial isolates listed in Table 8 were cultivated from −70° C. frozen stocks by two consecutive overnight passages (P1, P2) at 35° C. on 5% blood agar (Remel, Lenexa, Kans.). Chocolate agar (Remel) is used for Haemophilus influenzae. H. influenzae and Streptococcus pneumoniae are incubated in 5-10% CO2
Following appropriate incubation, the MIC is determined and the MIC is defined as the lowest concentration of the drug that prevented visible growth. […] Antibacterial activity of representative compounds of the invention were compared against telitromycin.

Assay [2] relates to S. pneumoniae Stpn_Erm 6849. In kind it is cell-based, Streptococcus pneumoniae. Conditions: Table 7, Strain ID I (Table 6): S. pneumoniae Stpn_Erm 6849; unit assumed. On the procedure:
as §1, §2, §3, §4

Assay [3] deals with Haemophilus influenzae Hain_49247. In kind it is cell-based. The conditions noted are these: Table 7, Strain ID M (Table 6): H. influenzae Hain_49247; unit assumed.
In assay [4] the test system is Enterococcus faecalis Enfa_29212. In kind it is cell-based. Conditions: Table 7, Strain ID D (Table 6): E. faecalis Enfa_29212. In short, it runs like this:
(§5)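 Broth microdilution per NCCLS in cation-adjusted Mueller-Hinton broth, with 2-5% lysed horse blood added for S. pneumoniae. Inoculum 3×10^5–7×10^5 CFU/ml, 2-fold drug dilutions, 18-24 h at 35° C; S. pneumoniae under 5-10% CO2, others ambient air. MIC = lowest concentration preventing visible growth.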

For assay [5], the system named is Staphylococcus epidermidis Step_14990. The assay is classed as cell-based. Conditions: Table 7, Strain ID B (Table 6): S. epidermidis Step_14990; in µg/mL (unit assumed). In short, it runs like this:
as §5

For assay [6], the system named is Staphylococcus aureus Stau_29213. The assay is classed as cell-based. Conditions: Table 7, Strain ID A (Table 6): S. aureus Stau_29213; in µg/mL (unit assumed). The procedure, abridged: as §5
Assay [7] relates to Streptococcus pneumoniae Stpn_Mef S 3427. The assay is classed as cell-based. The conditions noted are these: Table 7, Strain ID L (Table 6): S. pneumoniae Stpn_Mef S 3427. The procedure, abridged: as §5
Assay [8] relates to Staphylococcus epidermidis Step_f50654. In kind it is cell-based. Conditions: Table 7, Strain ID C (Table 6): S. epidermidis Step_f50654; in µg/mL (unit assumed). In short, it runs like this: as §5
Assay [9] concerns Streptococcus pneumoniae Stpn_Erm S 4297. In kind it is cell-based. The conditions noted are these: Table 7, Strain ID J (Table 6): S. pneumoniae Stpn_Erm S 4297. In short, it runs like this: as §5
The test system of assay [10] is Streptococcus pneumoniae Stpn_297-749. The assay is classed as cell-based. Conditions: Table 7, Strain ID G (Table 6): S. pneumoniae Stpn_297-749. The procedure, abridged:
as §5

Assay [11] has as its system Streptococcus pyogenes Stpy_8668. The assay is classed as cell-based. Conditions: Table 7, Strain ID E (Table 6): S. pyogenes Stpy_8668. The procedure, abridged:
as §5

For assay [12], the system named is Streptococcus pneumoniae Stpn_49619. The assay is classed as cell-based. Conditions: Table 7, Strain ID F (Table 6): S. pneumoniae Stpn_49619. In short, it runs like this:
as §5

For assay [13], the system named is Streptococcus pneumoniae Stpn_280-962. The assay is classed as cell-based. The conditions noted are these: Table 7, Strain ID H (Table 6): S. pneumoniae Stpn_280-962. In short, it runs like this:
as §5

For the compound `CCC1OC(=O)C(C)C(=O)C(C)C(OC2OC(C)CC(N(C)C)C2O)C(C)(OC)CC(C)C(=O)C(C)C2C1OC(=O)N2CCCOc1cccc(-c2cccnc2)c1` (stereo not drawn) [Compound 20s], the MIC worked out at 0.78 in [1]; 12.5 µg/mL (≈ 15.4 µM) in assay [2]; 3.13 µg/mL (≈ 3.86 µM) in [3]; 0.2 in assay [4] (in µg/mL (unit assumed)); 0.78 in [5]; 0.78 in [6]. In addition, the MIC result in assay [7] was “=0.05”; in assay [8], 0.4; in assay [9] (unit assumed), 0.2 µg/mL (≈ 0.247 µM); in [10], “=0.05”; in assay [11], “=0.05”; in [12] it was “=0.05”. For the same compound, the MIC entry in [13] is “=0.05”.
Regarding `CC[C@H]1OC(=O)[C@@](C)(F)C(=O)[C@H](C)[C@@H](OC2O[C@H](C)C[C@H](N(C)C)[C@H]2O)[C@@](C)(OC)C[C@@H](C)C(=O)[C@H](C)[C@H]2N(CCCC(C)(C)n3cnc4ncccc43)C(=O)O[C@]12CC` (stereo partly drawn) [Example 39, (3aS,4R,7S,9R,10R,11S,13R,15R,15aR)-3a,4-diethyl-7-fluoro-1-[4-(1H-imidazo[4,5-b]pyridin-1-yl)-4-methylpentyl]-11-methoxy-7,9,11,13,15-pentamethyl-2,6,8,14-tetraoxotetradecahydro-2H-oxacyclotetradecino[4,3-d][1,3]oxazol-10-yl-3,4,6-trideoxy-3-(dimethylamino)-D-xylo-hexopyranoside], the MIC in assay [1] came to 0.78; in [2], 0.1 µg/mL (≈ 0.118 µM); in [3], 3.13 µg/mL (≈ 3.7 µM); in assay [4] (in µg/mL (unit assumed)), 0.1; in [5] it was 0.1; in assay [6], 0.2. In addition, the MIC in assay [7] (in µg/mL (unit assumed)) was 0.2; in [8], 0.4; in [9], “=0.05”; in assay [10], “=0.05”; in [11] it was “=0.05”; in [12], “=0.05”. Further, the MIC entry in assay [13] is given as “=0.05”.
For `CCC1OC(=O)C(C)C(=O)C(C)C(OC2OC(C)CC(N(C)C)C2O)C(C)(OC)CC(C)C(=O)C(C)C2C1OC(=O)N2CCCCn1ccc2ncccc21` (stereo not drawn) [Compound 20m], the MIC in [1] is 0.2; in assay [2], 0.2 µg/mL (≈ 0.259 µM); in [3] it was 1.56 µg/mL (≈ 2.02 µM); in assay [4], “=0.05”; in assay [5], 0.1; in assay [6], 0.2. The MIC result in [7] is “=0.05”; in [8], 0.2; in assay [9], “=0.05”; in [10], “=0.05”; in assay [11], “=0.05”; in assay [12], “=0.05”. Further, the MIC result in [13] is “=0.05”.
With `C/C=C\[C@]12OC(=O)N(CCCCn3cnc(-c4cccnc4)c3)[C@@H]1[C@@H](C)C(=O)[C@H](C)C[C@](C)(OC)[C@H](OC1O[C@H](C)C[C@H](N(C)C)[C@H]1O)[C@@H](C)C(=O)[C@](C)(F)C(=O)O[C@@H]2CC` (stereo partly drawn) [Example 66, (3aS,4R,7S,9R,10R,11S,13R,15R,15aR)-4-ethyl-7-fluoro-11-methoxy-7,9,11,13,15-pentamethyl-2,6,8,14-tetraoxo-3a-[(1Z)-prop-1-enyl]-1-[4-(4-pyridin-3-yl-1H-imidazol-1-yl)butyl]tetradecahydro-1H-oxacyclotetradecino[4,3-d][1,3]oxazol-10-yl-3,4,6-trideoxy-3-(dimethylamino)-D-xylo-hexopyranoside], the MIC was 0.4 in assay [1]; 0.2 µg/mL (≈ 0.234 µM) in assay [2]; 6.25 µg/mL (≈ 7.3 µM) in assay [3]; “.01” in assay [4] (in µg/mL (unit assumed)); 0.2 in assay [5]; 0.2 in assay [6]. Moreover, the MIC in assay [7] (in µg/mL (unit assumed)) is 0.1; in [8], 0.2; in assay [9] (unit assumed) it was 0.1 µg/mL (≈ 0.117 µM); in assay [10] it was “=0.05”; in [11] it was “=0.05”; in assay [12], “=0.05”. In assay [13], the MIC result is listed as “=0.05”.
With `CCC1OC(=O)C(C)C(=O)C(C)C(OC2OC(C)CC(N(C)C)C2O)C(C)(OC)CC(C)C(=O)C(C)C2C1OC(=O)N2CCCCc1cc(C(F)(F)F)nc2ccccc12` (stereo not drawn) [Compound 20p], the MIC is 0.78 in assay [1]; 6.25 µg/mL (≈ 7.35 µM) in assay [2]; 6.25 µg/mL (≈ 7.35 µM) in assay [3]; 0.2 in [4] (in µg/mL (unit assumed)); 0.2 in [5]; 0.4 in [6]. Moreover, the MIC in [7] (in µg/mL (unit assumed)) is 0.2; in [8], 0.4; in assay [9] (unit assumed) it was 0.78 µg/mL (≈ 0.918 µM); in [10], “=0.05”; in assay [11] (unit assumed) it was 0.1 µg/mL (≈ 0.118 µM); in assay [12] (unit assumed) it was 0.1 µg/mL (≈ 0.118 µM). For the same compound, the MIC in assay [13] (unit assumed) stood at 0.1 µg/mL (≈ 0.118 µM).
Regarding `CCC1OC(=O)C(C)C(=O)C(C)C(OC2OC(C)CC(N(C)C)C2O)C(C)(OC)CC(C)C(=O)C(C)C2C1OC(=O)N2CCCCc1ccnc2c(C(F)(F)F)cccc12` (stereo not drawn) [Compound 20q], the MIC in [1] stood at 0.4; in [2], 1.56 µg/mL (≈ 1.84 µM); in assay [3] it was 12.5 µg/mL (≈ 14.7 µM); in assay [4] (in µg/mL (unit assumed)), 0.1; in assay [5], 0.2; in assay [6], 0.4. Also, the MIC in [7] (in µg/mL (unit assumed)) is 0.1; in assay [8], 0.4; in assay [9] (unit assumed), 0.2 µg/mL (≈ 0.235 µM); in assay [10], “=0.05”; in [11], “=0.05”; in assay [12] it was “=0.05”. The MIC result in [13] is “=0.05”.
